The values that follow come from PubChem BioAssay (NCI).

Holding throughout (test): NCI tumour cell line growth inhibition, 48 h
In test [1] the test system is HOP-62 NSCLC.
Test [2] deals with UACC-257 melanoma.
For test [3], the system named is CCRF-CEM leukemia.
Test [4] relates to UO-31 renal.
Test [5] concerns SF-295 CNS.
Test [6] concerns OVCAR-3 ovarian.
The subject of test [7] is NCI-H460 lung.
The subject of test [8] is U251 CNS.
Test [9] relates to UACC-62 melanoma.
For test [10], the system named is SNB-19 CNS.

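96-well plates; 48 h exposure; 5 concentrations. Endpoints by linear interpolation between flanking doses. Not reached: highest tested concentration assigned. GI50 marks 50% less growth. TGI: concentration producing complete growth inhibition.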

In the case of `O=c1c2cc(Br)ccc2nc(CCl)n1-c1ccc(O)c([N+](=O)[O-])c1`, the TGI in test [1] came out at 36.1 µM; in test [2], 48.2 µM; in [3] it was 52.9 µM; in test [4], 29.9 µM; in test [5] it was 31.5 µM; in test [6], 33 µM. The TGI in test [7] is over 100 µM; in test [8], over 100 µM; in test [9] it was 72.5 µM.
Regarding `CCC(=O)Nc1nc2c(ncn2C2OC(COC(=O)CC)C(OC(=O)CC)C2OC(=O)CC)c(=O)[nH]1` (centres undefined), the TGI in test [1], in test [2], in test [4], in [5], in [6] and in test [7] was over 100 µM each time. In addition, the TGI in test [8], in test [10] and in test [9] was over 100 µM throughout.
As for `N#CNC(N)=Nc1ccc(Cl)cc1`, the TGI in [1], in test [2], in test [4], in [5], in test [6] and in test [7] was over 100 µM in each case. Also, the TGI in [8], in [10] and in [9] was over 100 µM each time.
For `CSc1nnc(COc2ccc(Cl)cc2)o1`, the TGI in test [1], in test [2], in test [4], in test [5], in test [6] and in [7] was over 100 µM in each case. The TGI in test [8], in test [10] and in test [9] was over 100 µM throughout.
Consider `CC(=O)/C(=C/c1ccccc1F)C(=O)c1ccccc1`, for which the TGI was over 100 µM in test [1]; 91.3 µM in test [2]; over 100 µM in [4]; over 100 µM in test [5]; 58.8 µM in [6]; 97.8 µM in test [7]. Moreover, the TGI in test [8], in test [10] and in test [9] was over 100 µM each time.
On to `O=C(N/N=C/c1cccc(F)c1)c1ccncc1`, for which the TGI in test [1], in test [2], in test [3], in test [5], in test [7] and in test [8] was over 100 µM each time. The same compound came in with a TGI in test [10] of over 100 µM.
Take `COc1ccc(C(=O)NCCN(C)C)c2nc3ccccc3nc12`: the TGI is 9.06 µM in test [1]; 13 µM in test [2]; over 52 µM in [4]; over 36.1 µM in test [5]; over 29.3 µM in [6]; 40.9 µM in test [8]. For the same compound, the TGI in test [10] was over 53 µM; in test [9] it was 17.8 µM.
Turning to `c1ccc(N2N=C(c3ccco3)CC2c2ccco2)cc1` (centres undefined), the TGI in [1], in test [3], in test [4], in [5], in test [6] and in test [7] was over 100 µM each time. Also, the TGI in test [8], in test [10] and in test [9] was over 100 µM throughout.
For `COc1ccc(CN2CCC/C=C/CC(Cl)(Cl)C2=O)cc1`, the TGI was over 100 µM in test [1]; over 100 µM in test [3]; 57.4 µM in test [4]; 68.6 µM in test [5]; over 100 µM in test [6]; over 100 µM in test [7]. For the same compound, the TGI in test [8] is over 100 µM; in [10], 95.4 µM; in test [9], over 100 µM.
Turning to `CC(C)(C)OC(=O)NCCCCCCCn1c2c(c3ccccc3c1=O)C(=O)c1ccccc1-2`, the GI50 is 41.4 µM in test [2]; 76.1 µM in test [3]; 25.6 µM in test [4]; 37.4 µM in test [5]; 34.3 µM in [6]; 28.6 µM in [7]. For the same compound, the GI50 in test [8] is 28.9 µM; in [10], 32.5 µM; in test [9], 20 µM. In addition, the TGI in test [2], in test [3], in test [4], in [5], in test [6] and in [7] was over 100 µM throughout. The figures for the TGI in test [8], in test [10] and in [9] were 89.5 µM, over 100 µM and 72.8 µM, respectively.
For `NC(=S)NN/C=C(\C=Nc1ccccc1)[N+](=O)[O-]`, the TGI in test [1], in test [2], in [3], in test [5], in [6] and in test [10] was over 100 µM in each case. The same compound gave a TGI in test [9] of over 100 µM.
On to `COc1ccc(/C(=N\NC(=S)NN)C(c2ccc(OC)cc2)C2C(=O)Oc3ccccc32)cc1` (centres undefined), for which the GI50 in [2], in test [4], in [5], in test [6], in test [7] and in test [9] was over 100 µM in each case. Further, the TGI in [2], in [3], in test [4], in test [5], in test [6] and in test [7] was over 100 µM in each case. Besides, the TGI in test [9] was over 100 µM.
As for `CC(=O)N1CCC2(c3ccccc3N(C(C)=O)C2c2ccc(O)cc2)C1C(=O)O` (centres undefined), the TGI in test [1], in [2], in test [3], in test [4], in test [5] and in [6] was over 100 µM throughout. Besides, the TGI in [8], in test [10] and in test [9] was over 100 µM each time.
As to `C[N+](C)(C)CC1CCCCC1O` (centres undefined), the TGI in [1], in [2], in test [3], in test [4], in [5] and in test [6] was over 100 µM each time. In addition, the TGI in test [7], in test [8] and in test [9] was over 100 µM throughout.
